≈ marks a conversion by molar mass, not a printed value. Like-named read-outs stand apart in the source and are kept apart here.
Legend:
mast cells [1] = conditions: cited from earlier work
[2] = system: Mast cells from the peritoneal tissue of rats; test: Inhibition of substance P-induced release of histamine from mast cells; assay type: cell-based, rat; conditions: for IC50: positive control, read-out: concentration for 50% inhibition of substance P-induced release of histamine; for inhibition at 0.5 µg/mL / inhibition at 5 µg/mL / inhibition at 50 µg/mL: Rattus norvegicus, Mast cell, 2 min, substance P 10 μM, 37° C., based on histamine content of cells stimulated with substance P; for inhibition at 0.5 µg/mL: 0.5 ppm synthetic substance; for inhibition at 5 µg/mL: 5 ppm synthetic substance; for inhibition at 50 µg/mL: 50 ppm synthetic substance; for activity in inhibiting substance P-induced histamine release, in words: structure/activity considerations, Tables 1a/1b
Experimental: Stock solutions: avenanthramides 2 to 19 (structural formulae: see Table 1a) and dianthramides 20-29 (structural formulae: see Table 1b); concentration: 1% in ethanol; storage before use at 4° C.) Mast cells from the peritoneal tissue of rats were isolated by centrifuging on metrizamide and stimulated with substance P (10 μM). […] The synthetically prepared avenanthramides and dianthramides of the Formulae 2 to 29 (cf. […] Test system: The final test solutions were incubated for 2 minutes in the presence of substance P and of the reference substance (CaCl2) or of the particular sample to be tested (incubation temperature: 37° C.). Cells that had been incubated in the absence of substance P and reference or sample substance served as blank. The reaction solutions were first freed from cell constituents by centrifuging. The histamine present in the supernatant liquor was then converted to a derivative with OPT and the fluorescence of the solutions was determined photometrically (fluorometer Cytofluor 2350). […] The values for the various avenanthramides are given in Table 2 as % inhibition based on the histamine content of cells stimulated with substance P without the addition of inhibitors.

rat mast cells = conditions: oral application, dose of 200 mg/kg; cited from earlier work
mast cells [3] = test: Substance P-induced release of histamine from mast cells (Hachisuka et al.); assay type: cell-based; conditions: 10^−3 M converted with molecular weight 327
From the text: As Komatsu et al report, tranilast inhibits the antigen-(DNP ascaris; monoclonal IgE antibody with 2,4-dinitrophenyl-specificity) induced release of histamine from mast cells in the concentration range of 10^−3 to 10^−5 M. It was possible to achieve 50% inhibition of the histamine release at a concentration of approximately 10^−4 M. On the other hand, the influence of other anthranilic acid amides on the inhibition of the release of histamine from mast cells was not described in the publication. Hachisuka et al. (Arch. Dermatol. Res. Vol. 280, p. 158-162; 1988) investigated the influence of various active compounds on the inhibition of the substance P-induced release of histamine from mast cells. Here the activity of disodium chromogylcate (sic), ketotifen and tranilast was compared. […] Other anthranilic acid amides were not investigated in more detail within the framework of this research work either.
The comparatively low activity of tranilast agrees with the research carried out by Hachisuka et al. (Arch Dermatol Res Vol. 280, p. 158-162; 1988). […] Apparently, the alkylation of the vicinal hydroxyl groups in the cinnamic acid part or dihydrocinnamic acid part is accompanied by a significant reduction in activity.

mast cells [4] = conditions: cited from earlier work; remark: listed apart in the source

SMILES	inhibition at 0.5 µg/mL [2] [%]	inhibition at 5 µg/mL [2] [%]	inhibition at 50 µg/mL [2] [%]	also measured
O=C([O-])c1cc(=O)c2c(OCC(O)COc3cccc4oc(C(=O)[O-])cc(=O)c34)cccc2o1.[Na+].[Na+] [DSCG, disodium cromoglycate]				inhibition of substance P-induced histamine release (mast cells [1]; at 10^−3 M): 41%
[Ca+2].[Cl-].[Cl-] [calcium chloride, reference compound]				IC50 ([2]; test series 3.1 (synthetic anthranilic acid amides)): 639 µM; IC50 ([2]; test series 3.2 (oat fraction vs reconstituted product)): 432 µM
O=C(/C=C/c1ccc(O)c(O)c1)Nc1ccccc1C(=O)O [compound 2]	7	80	108	activity in inhibiting substance P-induced histamine release, in words [2]: complete inhibition of the histamine release
O=C(/C=C/c1ccc(O)c(O)c1)Nc1ccc(O)cc1C(=O)O [compound 3]	11	62	106	activity in inhibiting substance P-induced histamine release, in words [2]: complete inhibition of the histamine release
COc1cc(/C=C/C(=O)Nc2ccc(O)cc2C(=O)O)ccc1O [compound 4]	3	49	59	
O=C(CCc1ccc(O)cc1)Nc1ccc(O)cc1C(=O)O [compound 5]	7	17	47	
O=C(/C=C/c1ccc(O)cc1)Nc1cc(O)ccc1C(=O)O [compound 6]	-9	1	41	
O=C(/C=C/c1ccc(O)cc1)Nc1ccc(O)cc1C(=O)O [compound 7]	27	26	40	
O=C(CCc1ccc(O)cc1)Nc1ccccc1C(=O)O [compound 8]	13	26	40	
COc1cc(/C=C/C(=O)Nc2ccccc2C(=O)O)ccc1O [compound 9]	11	19	39	
O=C(/C=C/c1ccc(O)cc1)Nc1ccccc1C(=O)O [compound 10]	-10	8	37	
COc1ccc(CCC(=O)Nc2ccc(O)cc2C(=O)O)cc1OC [compound 11]	-6	11	36	
O=C(/C=C/c1ccccc1)Nc1ccc(O)cc1C(=O)O [compound 12]	-5	0	34	
COc1ccc(/C=C/C(=O)Nc2ccc(O)cc2C(=O)O)cc1OC [compound 13]	17	2	30	
COc1ccc(/C=C/C(=O)Nc2ccccc2C(=O)O)cc1 [compound 14]	21	30	24	
COc1ccc(/C=C/C(=O)Nc2ccccc2C(=O)O)cc1OC [compound 15]	23	22		

SMILES	inhibition at 0.5 µg/mL [2] [%]	inhibition at 5 µg/mL [2] [%]	inhibition at 50 µg/mL [2] [%]	also measured
COC(=O)c1ccccc1NC(=O)CCc1ccc(OC)c(OC)c1 [compound 16]	26	25	7	
O=C(/C=C/c1ccccc1)Nc1ccccc1C(=O)O [compound 17]	4	7	6	
COC(=O)c1ccccc1NC(=O)/C=C/c1ccc(OC)c(OC)c1 [compound 18]	5	-3	6	
COc1ccc(CCC(=O)Nc2ccccc2C(=O)O)cc1OC [compound 19]	-15	-22	-4	
O=C(Nc1ccccc1C(=O)O)c1ccc(O)c(O)c1 [compound 20, 2-[(3,4-dihydroxybenzoyl)amino]benzoic acid]	14	76	110	activity in inhibiting substance P-induced histamine release, in words [2]: greatest activity
O=C(Nc1ccc(O)cc1C(=O)O)c1ccc(O)cc1 [compound 21]	-15	48	76	
O=C(Nc1ccccc1C(=O)O)c1cc(O)c(O)c(O)c1 [compound 22, 2-[(3,4,5-trihydroxy-benzoyl)amino]benzoic acid]	39	72	71	
COc1ccc(C(=O)Nc2ccccc2C(=O)O)cc1O [compound 23, 2-[(3-hydroxy-4-methoxybenzoyl)amino]-benzoic acid]	9	29	69	
O=C(Nc1ccccc1C(=O)O)c1ccc(O)cc1 [compound 24, 2-[(4-hydroxy-benzoyl)amino]benzoic acid]	7	19	55	
COc1cc(C(=O)Nc2ccccc2C(=O)O)ccc1O [compound 25, 2-[(4-hydroxy-3-methoxybenzoyl)amino]-benzoic acid]	8	42	51	
O=C(Nc1ccccc1C(=O)O)c1ccc(O)cc1O [compound 26]	-13	22	48	
O=C(Nc1ccccc1C(=O)O)c1ccccc1 [compound 27]	27	28	39	
O=C(Nc1ccccc1C(=O)O)c1cccc(O)c1 [compound 28, 2-[(3-hydroxy-benzoyl)amino]benzoic acid]	12	25	35	
O=C(Nc1ccccc1C(=O)O)c1ccccc1O [compound 29]	-1	15	23	
O=C(/C=C/c1ccc(O)cc1)Nc1ccccc1C(=O)O [substance 10, N-(4-hydroxycinnamoyl)anthranilic Acid]				inhibition of antigen-induced destruction of rat mast cells (rat mast cells): 36.7%
COc1ccc(/C=C/C(=O)Nc2ccccc2C(=O)O)cc1OC [substance 15, N-(3,4-dimethoxy-cinnamoyl)anthranilic acid]			21	concentration for 50% inhibition of the substance P-induced histamine release (mast cells [3]): 327 ppm; IC50 (mast cells [3]; Mast cell, read-out: concentration for 50% inhibition of the substance P-induced histamine release): 327 µg/mL (≈ 999 µM); inhibition of antigen-induced destruction of rat mast cells (rat mast cells): 46.1%; IC50 (mast cells [1]; Hachisuka et al. 1988, read-out: concentration for 50% inhibition of the substance P-induced histamine release): ~1000 µM; concentration range inhibiting antigen-induced release of histamine (mast cells [4]; DNP ascaris, monoclonal IgE antibody with 2,4-dinitrophenyl-specificity): 10^−3 to 10^−5 M; IC50 (mast cells [4]; antigen-induced (DNP ascaris), read-out: concentration for 50% inhibition of the histamine release): ~100 µM
